In article PMC11053681, “Gold(I) and Silver(I) Complexes Containing Hybrid Sulfonamide/Thiourea Ligands as Potential Leishmanicidal Agents” (Pharmaceutics, 2024):
Read-outs that look alike come from different tables or passages of the source.

Key:
LbOYE = LbOYE (Leishmania braziliensis, UniProt A4H6Z3); assay: Suppression of intrinsic tryptophan fluorescence of LbOYE; format: binding; conditions: 25 °C
From the text: The recombinant LbOYE protein was produced using the methodology previously described. Briefly, the protein was expressed in strains of bacterial Escherichia coli BL21(DE3) through induction by IPTG using the pET28a:LbOYE vector. The enzyme was purified through a chromatography step of capture by nickel affinity, as the pET28a vector allows the expression of a polyhistidine fusion peptide, located at the N-terminal end of the protein. After affinity purification, the polyhistidine tail was excised by “overnight” incubation with thrombin, and the second purification step was performed using size exclusion chromatography. Purification was evaluated by SDS-PAGE and protein concentration was estimated by spectrophotometry.
The emission spectra of the intrinsic fluorescence of the tryptophan were recorded using a Shimadzu F-4500 spectrofluorometer in the range of 310–420 nm, with opening of slits of excitation and emission at 5.0 nm and λex = 295 nm. Interaction analyzes between LbOYE and ligands were performed at λmax = 333 nm.
The compounds were solubilized in DMSO and then we made successive dilutions in a Tris-HCl 25 mmol L^−1 buffer, pH 8.0, containing 100 mmol L^−1 of NaCl. For all experiments, the final concentration of DMSO was kept constant and equal to 2.5%. Solutions with increasing concentrations of ligand and constant concentration of LbOYE (1 µmol L^−1) were prepared, which were kept at 25 °C for a period of 1h before acquisition of fluorescence emission spectra.
The results were obtained from the fluorescence emission spectra of the intrinsic tryptophan probe in the presence of the compounds HL1^Ch, HL3^FPh, HL5^NO2Ph, [Au(HL1^Ch)2]Cl and [Ag(HL3^FPh)2]NO3. The bonding parameters were determined by the Hill plot, obtaining the dissociation constant (Kd) through the non-linear adjustment of the saturation curve to the experimental data. The double-log plot was used to determine the bonding constant and the number of bonding sites (n). It also allows the calculation of the bonding constant (Kb) and Kd from 1/Kb.
Equation (1)—Hill’s equation:(1) F0−F/F0=[L]/L+Kd
Equation (2)—Double-log:(2) logF0−F/F0=nlogKb−nlog1/L−(F0−F)[P0]/F
Equation (3)—Equation of Stern–Volmer:(3) F0/F=1+KSV[L]
The study of fluorescence quenching can be affected when the ligand has absorption bands that coincide with excitation and emission wavelengths of fluorescence. This interference is called the internal filter effect, which can be minimized using the procedure described by Equation (4). Fobs and Fcor are the fluorescence intensities at 333 nm measured and corrected, respectively; l represents the optical step where the absorption and emission of light occurs and C0 is the concentration of the ligand.
For the correction of the internal filter effect, were used the molar absorptivity coefficient values in the excitation (295 nm) and emission (333 nm) lengths, [λ/ε (L mol^−1 cm^−1)]; HL1^Ch (εex = 373 and εem = 117), HL3^FPh (εex = 1191 and εem = 57), HL5^NO2Ph (εex = 6162 and εem = 9124), Au1 (εex = 7045 and εem = 4008) and Ag3 (εex = 9431 and εem = 3281).

[1] = Solubility in buffer for the fluorescence experiments; format: physicochemical; conditions: Tris-HCl buffer
Procedure, shortened: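 Compounds dissolved in DMSO and diluted in 25 mmol L^−1 Tris-HCl, pH 8.0, 100 mmol L^−1 NaCl, final DMSO 2.5%. Increasing ligand with 1 µmol L^−1 LbOYE held 1 h at 25 °C before fluorescence emission spectra were recorded.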

Sequence of LbOYE (A4H6Z3 entry or part of it): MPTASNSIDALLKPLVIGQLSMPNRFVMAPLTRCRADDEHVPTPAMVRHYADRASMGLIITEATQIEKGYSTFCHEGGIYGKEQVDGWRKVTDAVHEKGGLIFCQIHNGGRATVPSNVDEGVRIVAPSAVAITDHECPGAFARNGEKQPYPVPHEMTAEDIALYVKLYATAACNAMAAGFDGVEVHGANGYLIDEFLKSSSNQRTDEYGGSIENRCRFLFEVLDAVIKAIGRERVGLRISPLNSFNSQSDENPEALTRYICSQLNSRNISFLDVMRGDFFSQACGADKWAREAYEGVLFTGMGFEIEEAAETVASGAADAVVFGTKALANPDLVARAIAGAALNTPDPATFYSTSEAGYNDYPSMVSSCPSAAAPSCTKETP

In the case of Cc1ccc(S(=O)(=O)NNC(Nc2ccc(F)cc2)=[S][Ag+][S]=C(NNS(=O)(=O)c2ccc(C)cc2)Nc2ccc(F)cc2)cc1.O=[N+]([O-])[O-] [Ag3, [Ag(HL3^FPh)2]NO3], the Kd (LbOYE; Hill plot (n = 1), Equation (1), Tris-HCl pH 8.0, 2.5% DMSO, read-out: Kd * (Hill plot)) is reported as 9.6 ± 0.7 µM, the “Ksv *** (Stern–Volmer constant)” value (LbOYE; Stern–Volmer, Equation (3)) is reported as 23 ± 2 × 10^4 and the Kd (LbOYE; double log, Equation (2), Kd = 1/Kb, read-out: Kd ** (double log) (converted)) is reported as 11.2 ± 0.3 µM. For the same molecule, the “n ** (number of bonding sites)” value (LbOYE; double log, Equation (2)) was 2.0 ± 0.1 and the “Solubility in buffer at the concentrations for the fluorescence experiments, in words” value [1] was “passed this stage”.
